Patent US6221906A, “Platinum complex conjugated to cyclotriphosphazene, its preparation, and anticancer agent comprising the same” (Korea Institute of Science and Technology, priority 1999, dated 2001)

Key:
leukemia L1210 cells = test: anticancer activity test against mouse leukemia L1210 cells implanted in BDF1 mice; type: in vivo; settings: intra-peritoneal, days 1, 5 and 9; for Number of survival after 60 days: of 8 mice
[1] = literature value; cited from earlier work
Hartley guinea pigs = test: guinea pig anaphylaxis test; type: in vivo
Procedure: […] The systemic symptoms were observed 30 minutes after the injection. […] However, only 2 animals administered with oligomeric platinum complex of the present invention (KI 60606: The compound in Example 8 of the present invention) had severe symptoms but none died.

ICR mouse = test: pilot acute toxicity test, single tail vein injection (LD50); type: in vivo; settings: for Death rate: 2 animals; for deaths on day 0 after administration: of 2 animals
Procedure: A pilot acute toxicity test was performed for the compound (KI-60606) described in Example 8 of the present invention by intravenous injection.
(2) carrier: physiological saline for injection
(1) animal model: ICR mouse
(2) age of the animal: 4 weeks old when delivered, 5 weeks old when the drug was administered
(3) sex and number of animals: 12 males and 12 females
(4) breeding condition: temperature: 23 3C. relative humidity: 50 10% light intensity: 150-300 Lux
3. Number and method of administration: single tail vein injection
5. Observation categories: general symptoms, symptoms of dead animals, body weight up to seventh day after administration, autopsy finding.

[2] = antigen 1 mg/kg, induced antigen 5 mg/kg, 4 animals
[3] = antigen 5 mg/kg, induced antigen 5 mg/kg, 4 animals
[4] = male or female mice, 500 mg/kg or more

Q: Which “Increased life span (ILS)” value (leukemia L1210 cells; 30 mg/kg) does the source give for `O=C1[O][Pt-2]2([NH2+]C3CCCCC3[NH2+]2)[O]C(=O)C1NP1(NC2C(=O)[O][Pt-2]3([NH2+]C4CCCCC4[NH2+]3)[O]C2=O)=NP(NC2C(=O)[O][Pt-2]3([NH2+]C4CCCCC4[NH2+]3)[O]C2=O)(NC2C(=O)[O][Pt-2]3([NH2+]C4CCCCC4[NH2+]3)[O]C2=O)=NP(NC2C(=O)[O][Pt-2]3([NH2+]C4CCCCC4[NH2+]3)[O]C2=O)(NC2C(=O)[O][Pt-2]3([NH2+]C4CCCCC4[NH2+]3)[O]C2=O)=N1` (racemic) [Example 16, [NP(Am·Pt(dach)2]3] here?
A: 222.1%

Q: And the “Increased life span (ILS)” value (leukemia L1210 cells; 60 mg/kg)?
A: Toxic

Q: Which LD50 [1] does the source give for `N.N.O=C([O-])C1(C(=O)[O-])CCC1.[Pt+2]` [Carboplatin, cis-(NH3)2 Pt(CBDCA), reference compound] here?
A: 180 mg/kg

Q: And the “Increased life span (ILS)” value (leukemia L1210 cells; 40 mg/kg)?
A: 80%

Q: For `N.N.[Cl][Pt][Cl]` [Cisplatin, cis-(NH3)2 PtCl2, reference compound], which “Increased life span (ILS)” value (leukemia L1210 cells; 4 mg/kg) is on record?
A: 60%

Q: Which “Increased life span (ILS)” value (leukemia L1210 cells; 40 mg/kg) does the source give for `O=C1CC(NP2(NC3CC(=O)[O][Pt-2]4([NH2+]C5CCCCC5[NH2+]4)[O]C3=O)=NP(NC3CC(=O)[O][Pt-2]4([NH2+]C5CCCCC5[NH2+]4)[O]C3=O)(NC3CC(=O)[O][Pt-2]4([NH2+]C5CCCCC5[NH2+]4)[O]C3=O)=NP(NC3CC(=O)[O][Pt-2]4([NH2+]C5CCCCC5[NH2+]4)[O]C3=O)(NC3CC(=O)[O][Pt-2]4([NH2+]C5CCCCC5[NH2+]4)[O]C3=O)=N2)C(=O)[O][Pt-2]2([NH2+]C3CCCCC3[NH2+]2)[O]1` [Example 1, [NP(L-Asp·Pt(dach))2]3] here?
A: > 243.8%

Q: And the “Number of survival after 60 days” value (leukemia L1210 cells; 40 mg/kg)?
A: 1/8

Q: And the “Increased life span (ILS)” value (leukemia L1210 cells; 60 mg/kg)?
A: > 448.8%

Q: What about the “Number of survival after 60 days” value (leukemia L1210 cells; 60 mg/kg) of the same compound?
A: 4/8

Q: For `CC1(C)C[NH2+][Pt-2]2([NH2+]C1)[O]C(=O)C[C@H](NP1(N[C@H]3CC(=O)[O][Pt-2]4([NH2+]CC(C)(C)C[NH2+]4)[O]C3=O)=NP(N[C@H]3CC(=O)[O][Pt-2]4([NH2+]CC(C)(C)C[NH2+]4)[O]C3=O)(N[C@H]3CC(=O)[O][Pt-2]4([NH2+]CC(C)(C)C[NH2+]4)[O]C3=O)=NP(N[C@H]3CC(=O)[O][Pt-2]4([NH2+]CC(C)(C)C[NH2+]4)[O]C3=O)(N[C@H]3CC(=O)[O][Pt-2]4([NH2+]CC(C)(C)C[NH2+]4)[O]C3=O)=N1)C(=O)[O]2` [Example 2, [NP(L-Asp·Pt(dmpda))2]3], which “Increased life span (ILS)” value (leukemia L1210 cells; 30 mg/kg) is on record?
A: 165.0%

Q: What about the “Increased life span (ILS)” value (leukemia L1210 cells; 60 mg/kg) of the same compound?
A: 147.9%

Q: Which “Increased life span (ILS)” value (leukemia L1210 cells; 30 mg/kg) does the source give for `O=C1C[C@H](NP2(N[C@H]3CC(=O)[O][Pt-2]4([NH2+]CC[NH2+]4)[O]C3=O)=NP(N[C@H]3CC(=O)[O][Pt-2]4([NH2+]CC[NH2+]4)[O]C3=O)(N[C@H]3CC(=O)[O][Pt-2]4([NH2+]CC[NH2+]4)[O]C3=O)=NP(N[C@H]3CC(=O)[O][Pt-2]4([NH2+]CC[NH2+]4)[O]C3=O)(N[C@H]3CC(=O)[O][Pt-2]4([NH2+]CC[NH2+]4)[O]C3=O)=N2)C(=O)[O][Pt-2]2([NH2+]CC[NH2+]2)[O]1` [Example 4, [NP(L-Asp·Pt(en))2]3] here?
A: 250.9%

Q: And the “Increased life span (ILS)” value (leukemia L1210 cells; 60 mg/kg)?
A: Toxic

Q: For `O=C1CCC(NP2(NC3CCC(=O)[O][Pt-2]4([NH2+]C5CCCCC5[NH2+]4)[O]C3=O)=NP(NC3CCC(=O)[O][Pt-2]4([NH2+]C5CCCCC5[NH2+]4)[O]C3=O)(NC3CCC(=O)[O][Pt-2]4([NH2+]C5CCCCC5[NH2+]4)[O]C3=O)=NP(NC3CCC(=O)[O][Pt-2]4([NH2+]C5CCCCC5[NH2+]4)[O]C3=O)(NC3CCC(=O)[O][Pt-2]4([NH2+]C5CCCCC5[NH2+]4)[O]C3=O)=N2)C(=O)[O][Pt-2]2([NH2+]C3CCCCC3[NH2+]2)[O]1` [Example 8, [NP(L-Glu·Pt(dach))2]3], which “death in anaphylaxis test” value (Hartley guinea pigs; all dose groups) is on record?
A: none died

Q: What about the “number of animals with severe symptoms” value (Hartley guinea pigs; all dose groups) of the same compound?
A: 2

Q: What about the “number of animals with symptom [++] (severe)” value (Hartley guinea pigs; [2]) of the same compound?
A: 2

Q: What about the “number of animals with symptom [+] (moderate)” value (Hartley guinea pigs; [2]) of the same compound?
A: 1

Q: What about the “number of animals with symptom [±] (mild)” value (Hartley guinea pigs; [2]) of the same compound?
A: 1

Q: What about the “number of animals with symptom [+] (moderate)” value (Hartley guinea pigs; [3]) of the same compound?
A: 1

Q: And the “number of animals with symptom [-] (asymptomatic)” value (Hartley guinea pigs; [3])?
A: 3

Q: What about the “antigenicity compared with physiological saline” value (Hartley guinea pigs; compared with physiological saline solution) of the same compound?
A: antigenicity was even less

Q: And the Main symptoms (ICR mouse; 62.5-2000 mg/kg, single intravenous injection, ICR mice)?
A: prone positioning, gait disturbance, dyspnea and decrease in body weight

Q: And the “General symptoms of dead mice” value (ICR mouse; 125 or 250 mg/kg)?
A: prone positioning and drooling

Q: What about the “Estimated LD50 value” (ICR mouse; female ICR mice, single intravenous injection) of the same compound?
A: 125 to 250 mg/kg

Q: And the Death rate (ICR mouse; female, 62.5 mg/kg)?
A: 0%

Q: What about the “number of mice with decrease in body weight” value (ICR mouse; female, 125 mg/kg) of the same compound?
A: 2

Q: What about the Death rate (ICR mouse; female, 125 mg/kg) of the same compound?
A: 0%

Q: And the Death rate (ICR mouse; female, 250 mg/kg)?
A: 100%

Q: And the “deaths on day 0 after administration” value (ICR mouse; female, 250 mg/kg)?
A: 2

Q: What about the Death rate (ICR mouse; female, 500 mg/kg) of the same compound?
A: 100%

Q: What about the “deaths on day 0 after administration” value (ICR mouse; female, 500 mg/kg) of the same compound?
A: 2

Q: What about the Death rate (ICR mouse; female, 1000 mg/kg) of the same compound?
A: 100%

Q: And the “deaths on day 0 after administration” value (ICR mouse; female, 1000 mg/kg)?
A: 2

Q: And the Death rate (ICR mouse; female, 2000 mg/kg)?
A: 100%

Q: What about the “deaths on day 0 after administration” value (ICR mouse; female, 2000 mg/kg) of the same compound?
A: 2

Q: And the “Estimated LD50 value” (ICR mouse; male ICR mice, single intravenous injection)?
A: 125 mg/kg

Q: And the General symptoms (ICR mouse; [4])?
A: prone positioning, gait disturbance and dyspnea

Q: What about the “time of death after injection” value (ICR mouse; [4]) of the same compound?
A: 10 to 20 s

Q: What about the “number of mice with decrease in body weight” value (ICR mouse; male, 62.5 mg/kg) of the same compound?
A: 1

Q: What about the Death rate (ICR mouse; male, 62.5 mg/kg) of the same compound?
A: 0%

Q: And the Death rate (ICR mouse; male, 125 mg/kg)?
A: 50%

Q: And the “deaths on day 0 after administration” value (ICR mouse; male, 125 mg/kg)?
A: 1

Q: What about the Death rate (ICR mouse; male, 250 mg/kg) of the same compound?
A: 100%

Q: What about the “deaths on day 0 after administration” value (ICR mouse; male, 250 mg/kg) of the same compound?
A: 2

Q: And the Death rate (ICR mouse; male, 500 mg/kg)?
A: 100%

Q: What about the “deaths on day 0 after administration” value (ICR mouse; male, 500 mg/kg) of the same compound?
A: 2

Q: And the Death rate (ICR mouse; male, 1000 mg/kg)?
A: 100%

Q: And the “deaths on day 0 after administration” value (ICR mouse; male, 1000 mg/kg)?
A: 2

Q: And the Death rate (ICR mouse; male, 2000 mg/kg)?
A: 100%

Q: What about the “deaths on day 0 after administration” value (ICR mouse; male, 2000 mg/kg) of the same compound?
A: 2

Q: And the autopsy finding (ICR mouse; mice that died immediately and mice that survived)?
A: No particular autopsy finding was observed

Q: What about the “General symptoms of live animals” value (ICR mouse; one day after injection) of the same compound?
A: did not have any particular symptoms

Q: And the “Increased life span (ILS)” value (leukemia L1210 cells; 60 mg/kg)?
A: > 400%

Q: What about the “Number of survival after 60 days” value (leukemia L1210 cells; 60 mg/kg) of the same compound?
A: 3/8

Q: What about the “Increased life span (ILS)” value (leukemia L1210 cells; 80 mg/kg) of the same compound?
A: > 402.8%

Q: And the “Number of survival after 60 days” value (leukemia L1210 cells; 80 mg/kg)?
A: 3/8

Q: For `O=C1CC[C@H](NP2(N[C@H]3CCC(=O)[O][Pt-2]4([NH2+]CC[NH2+]4)[O]C3=O)=NP(N[C@H]3CCC(=O)[O][Pt-2]4([NH2+]CC[NH2+]4)[O]C3=O)(N[C@H]3CCC(=O)[O][Pt-2]4([NH2+]CC[NH2+]4)[O]C3=O)=NP(N[C@H]3CCC(=O)[O][Pt-2]4([NH2+]CC[NH2+]4)[O]C3=O)(N[C@H]3CCC(=O)[O][Pt-2]4([NH2+]CC[NH2+]4)[O]C3=O)=N2)C(=O)[O][Pt-2]2([NH2+]CC[NH2+]2)[O]1` [Example 13, [NP(L-Glu·Pt(en))2]3], which “Increased life span (ILS)” value (leukemia L1210 cells; 30 mg/kg) is on record?
A: 277%

Q: What about the “Increased life span (ILS)” value (leukemia L1210 cells; 60 mg/kg) of the same compound?
A: Toxic

Q: Which results are given for `O=C1[O][Pt-2]2([NH2+]CC[NH2+]2)[O]C(=O)C1NP1(NC2C(=O)[O][Pt-2]3([NH2+]CC[NH2+]3)[O]C2=O)=NP(NC2C(=O)[O][Pt-2]3([NH2+]CC[NH2+]3)[O]C2=O)(NC2C(=O)[O][Pt-2]3([NH2+]CC[NH2+]3)[O]C2=O)=NP(NC2C(=O)[O][Pt-2]3([NH2+]CC[NH2+]3)[O]C2=O)(NC2C(=O)[O][Pt-2]3([NH2+]CC[NH2+]3)[O]C2=O)=N1` (stereo not shown) [Example 18, [NP(Am·Pt(en))2]3]?
A: Increased life span (ILS) (leukemia L1210 cells; 30 mg/kg): > 400%; Number of survival after 60 days (leukemia L1210 cells; 30 mg/kg): 3/8; Increased life span (ILS) (leukemia L1210 cells; 60 mg/kg): Toxic

Q: For “[NP(OH)(Glu.Pt(dach)]n [KI-30606, reference compound]”, which “death due to anaphylaxis” value (Hartley guinea pigs; all animals, 30 minutes after injection) is on record?
A: died due to anaphylaxis

Q: And the “number of animals with symptom [+++] (death)” value (Hartley guinea pigs; antigen 1 mg/kg, induced antigen 5 mg/kg, 5 animals)?
A: 5

Q: What about the “number of animals with symptom [+++] (death)” value (Hartley guinea pigs; [3]) of the same compound?
A: 4
